Data reported in ChEMBL document CHEMBL1201862, “PubChem BioAssay data set” (2004).
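Each compound was tested at five concentrations against cells in 96-well plates for 48 hours. Here, GI50 denotes the concentration required for 50% inhibition of growth.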 Activity calls are given as the source filed them. Cut-off read from the data, not from the text of the source: active = GI50 up to about 1.1 µM and inactive = higher.

Columns and labels:
Assay in all cases: NCI tumour cell line growth inhibition, 48 h
M19-MEL = test system: M19-MEL
UACC-257 = test system: UACC-257
M14 = test system: M14
SNB-78 = test system: SNB-78
TK-10 = test system: TK-10
U-251 = test system: U-251
SNB-75 = test system: SNB-75
SF-268 = test system: SF-268
CCRF-CEM = test system: CCRF-CEM
KM12 = test system: KM12
IGROV-1 = test system: IGROV-1
SF-539 = test system: SF-539
SK-MEL-2 = test system: SK-MEL-2
OVCAR-5 = test system: OVCAR-5
MOLT-4 = test system: MOLT-4
COLO 205 = test system: COLO 205
SW-620 = test system: SW-620
NCI-H226 = test system: NCI-H226
NCI/ADR-RES = test system: NCI/ADR-RES
MDA-MB-231 = test system: MDA-MB-231

For `O=C1c2cccc3cccc(c23)C(=O)N1CCN(CCO)CCO`, the GI50 (M19-MEL) was 21.5 µM (inactive), the GI50 (UACC-257) was 22.5 µM (inactive) and the GI50 (M14) was 20 µM (inactive). For the same molecule, the GI50 (SNB-78) was 42.1 µM (inactive), the GI50 (TK-10) was 17.5 µM (inactive) and the GI50 (U-251) was 32.4 µM (inactive). The GI50 (SNB-75) was 30.1 µM (inactive), the GI50 (SF-268) was 35.6 µM (inactive) and the GI50 (CCRF-CEM) was 30.3 µM (inactive). The GI50 (KM12) was 29.5 µM (inactive), the GI50 (IGROV-1) was 32.7 µM (inactive) and the GI50 (SF-539) was 23.5 µM (inactive). For the same molecule, the GI50 (SK-MEL-2) was 12.2 µM (inactive), the GI50 (OVCAR-5) was 20.9 µM (inactive) and the GI50 (MOLT-4) was 24.2 µM (inactive). For the same molecule, the GI50 (COLO 205) was 15.6 µM (inactive), the GI50 (SW-620) was 19.1 µM (inactive) and the GI50 (NCI-H226) was 16 µM (inactive).
For `Nc1ccc(C(=O)NN2C(=O)C(Cl)C2c2ccc(O)cc2)cc1` (centres undefined), the GI50 (M19-MEL) was 20.1 µM (inactive), the GI50 (UACC-257) was 36.1 µM (inactive) and the GI50 (M14) was 17.5 µM (inactive). The GI50 (SNB-78) was 11.9 µM (inactive), the GI50 (TK-10) was 44.3 µM (inactive) and the GI50 (U-251) was 16.1 µM (inactive). For the same molecule, the GI50 (SNB-75) was 26.5 µM (inactive), the GI50 (SF-268) was 13.4 µM (inactive) and the GI50 (CCRF-CEM) was 12.3 µM (inactive). The GI50 (KM12) was 21.8 µM (inactive), the GI50 (IGROV-1) was 17.8 µM (inactive) and the GI50 (SF-539) was 19.1 µM (inactive). For the same molecule, the GI50 (SK-MEL-2) was 15.3 µM (inactive), the GI50 (OVCAR-5) was 21.7 µM (inactive) and the GI50 (MOLT-4) was 16.1 µM (inactive). The GI50 (COLO 205) was 18.8 µM (inactive), the GI50 (SW-620) was 23.3 µM (inactive) and the GI50 (NCI-H226) was 25.4 µM (inactive).
In the case of `O=S1(=O)N2CN3CN(C2)CN1C3`, the GI50 (M19-MEL) is reported as 62.1 µM (inactive), the GI50 (UACC-257) is reported as 30.1 µM (inactive) and the GI50 (M14) is reported as 36.2 µM (inactive). For the same molecule, the GI50 (SNB-78) was 28.1 µM (inactive), the GI50 (TK-10) was 286 µM (inactive) and the GI50 (U-251) was 331 µM (inactive). The GI50 (SNB-75) was 28.8 µM (inactive), the GI50 (NCI/ADR-RES) was > 100 µM (inactive) and the GI50 (SF-268) was > 58.3 µM (inactive). For the same molecule, the GI50 (CCRF-CEM) was > 31.6 µM (inactive), the GI50 (KM12) was 93.8 µM (inactive) and the GI50 (IGROV-1) was 278 µM (inactive). For the same molecule, the GI50 (SF-539) was > 100 µM (inactive), the GI50 (SK-MEL-2) was 141 µM (inactive) and the GI50 (OVCAR-5) was 208 µM (inactive). For the same molecule, the GI50 (MOLT-4) was 105 µM (inactive), the GI50 (COLO 205) was 25.4 µM (inactive) and the GI50 (SW-620) was 23.7 µM (inactive). For the same molecule, the GI50 (NCI-H226) was 28.1 µM (inactive).
In the case of `CN(C)CC1(Cc2ccccc2)CCC(Cc2ccccc2)C1=O` (centres undefined), the GI50 (M19-MEL) is reported as 16.5 µM (inactive), the GI50 (UACC-257) is reported as 14.9 µM (inactive) and the GI50 (M14) is reported as 10.1 µM (inactive). The GI50 (SNB-78) was 15.8 µM (inactive), the GI50 (TK-10) was 13.4 µM (inactive) and the GI50 (U-251) was 17.5 µM (inactive). The GI50 (SNB-75) was 14.4 µM (inactive), the GI50 (NCI/ADR-RES) was 9.68 µM (inactive) and the GI50 (SF-268) was 14.8 µM (inactive). For the same molecule, the GI50 (CCRF-CEM) was 2.79 µM (inactive), the GI50 (KM12) was 8.36 µM (inactive) and the GI50 (MDA-MB-231) was 11.2 µM (inactive). For the same molecule, the GI50 (IGROV-1) was 9.04 µM (inactive), the GI50 (SF-539) was 18.1 µM (inactive) and the GI50 (SK-MEL-2) was 12.2 µM (inactive). For the same molecule, the GI50 (OVCAR-5) was 18 µM (inactive), the GI50 (MOLT-4) was 2.88 µM (inactive) and the GI50 (COLO 205) was 6.85 µM (inactive). For the same molecule, the GI50 (SW-620) was 3.67 µM (inactive) and the GI50 (NCI-H226) was 20.1 µM (inactive).
In the case of `CCc1cccc(=O)c([O-])c1.CCc1cccc(=O)c([O-])c1.[Bi+3].[Cl-]`, the GI50 (M19-MEL) is reported as 6.98 µM (inactive), the GI50 (UACC-257) is reported as 6.58 µM (inactive) and the GI50 (M14) is reported as 8.38 µM (inactive). For the same molecule, the GI50 (SNB-78) was 7.19 µM (inactive), the GI50 (TK-10) was 4.42 µM (inactive) and the GI50 (U-251) was 6.46 µM (inactive). The GI50 (SNB-75) was 17.6 µM (inactive), the GI50 (SF-268) was 5.21 µM (inactive) and the GI50 (CCRF-CEM) was 1.91 µM (inactive). The GI50 (KM12) was 12.4 µM (inactive), the GI50 (IGROV-1) was 6.78 µM (inactive) and the GI50 (SF-539) was 9.84 µM (inactive). The GI50 (SK-MEL-2) was 12.7 µM (inactive), the GI50 (OVCAR-5) was 16.5 µM (inactive) and the GI50 (MOLT-4) was 2.22 µM (inactive). For the same molecule, the GI50 (COLO 205) was 2.29 µM (inactive), the GI50 (SW-620) was 3.23 µM (inactive) and the GI50 (NCI-H226) was 23.2 µM (inactive).
With `CNC(=O)OCc1nccc2c(C)c3[nH]c4ccc(OC)cc4c3cc12` the GI50 (M19-MEL) was 5.61 µM (inactive), the GI50 (UACC-257) was 11.3 µM (inactive) and the GI50 (M14) was 9.12 µM (inactive). The GI50 (SNB-78) was 16.6 µM (inactive), the GI50 (TK-10) was 19.3 µM (inactive) and the GI50 (U-251) was 5.12 µM (inactive). The GI50 (SNB-75) was 7.82 µM (inactive), the GI50 (SF-268) was 10.5 µM (inactive) and the GI50 (CCRF-CEM) was 1.51 µM (inactive). For the same molecule, the GI50 (KM12) was 3.78 µM (inactive), the GI50 (IGROV-1) was 4.8 µM (inactive) and the GI50 (SF-539) was 3.17 µM (inactive). For the same molecule, the GI50 (SK-MEL-2) was 8.91 µM (inactive), the GI50 (OVCAR-5) was 22 µM (inactive) and the GI50 (MOLT-4) was 0.705 µM (active). The GI50 (COLO 205) was 2.94 µM (inactive), the GI50 (SW-620) was 3.03 µM (inactive) and the GI50 (NCI-H226) was 1.73 µM (inactive).
`CCOc1ccccc1NC(=O)C1=C(C)NC(C)=C(C(=O)Nc2ccccc2OCC)C1c1ccc2c(c1)OCO2` was tested, and the GI50 (M19-MEL) was 30.1 µM (inactive), the GI50 (UACC-257) was 22 µM (inactive) and the GI50 (M14) was 18.8 µM (inactive). For the same molecule, the GI50 (SNB-78) was 24.6 µM (inactive), the GI50 (TK-10) was 76.6 µM (inactive) and the GI50 (U-251) was 47.5 µM (inactive). The GI50 (SNB-75) was 3.53 µM (inactive), the GI50 (SF-268) was 41.5 µM (inactive) and the GI50 (CCRF-CEM) was 24.2 µM (inactive). For the same molecule, the GI50 (KM12) was 11.8 µM (inactive), the GI50 (IGROV-1) was 25 µM (inactive) and the GI50 (SF-539) was 25.5 µM (inactive). The GI50 (SK-MEL-2) was 18.7 µM (inactive), the GI50 (OVCAR-5) was 53.2 µM (inactive) and the GI50 (MOLT-4) was 12.1 µM (inactive). The GI50 (COLO 205) was 18.2 µM (inactive), the GI50 (SW-620) was 38.4 µM (inactive) and the GI50 (NCI-H226) was 22 µM (inactive).
In the case of `O=C1C=C(Nc2ccccc2C(=O)CC(=O)C(=O)Nc2cccc(C(F)(F)F)c2)c2ccccc2C1=O`, the GI50 (M19-MEL) is reported as 2.53 µM (inactive), the GI50 (UACC-257) is reported as 15.3 µM (inactive) and the GI50 (M14) is reported as 16.6 µM (inactive). For the same molecule, the GI50 (SNB-78) was > 36.7 µM (inactive), the GI50 (TK-10) was > 96.4 µM (inactive) and the GI50 (U-251) was 31.3 µM (inactive). For the same molecule, the GI50 (SNB-75) was 50.4 µM (inactive), the GI50 (NCI/ADR-RES) was 13.5 µM (inactive) and the GI50 (SF-268) was 17.2 µM (inactive). The GI50 (CCRF-CEM) was 4.37 µM (inactive), the GI50 (KM12) was 24 µM (inactive) and the GI50 (MDA-MB-231) was 20 µM (inactive). For the same molecule, the GI50 (IGROV-1) was 28.4 µM (inactive), the GI50 (SF-539) was 22.5 µM (inactive) and the GI50 (SK-MEL-2) was 16.8 µM (inactive). The GI50 (OVCAR-5) was > 77.1 µM (inactive), the GI50 (MOLT-4) was 4.83 µM (inactive) and the GI50 (COLO 205) was 66.8 µM (inactive). For the same molecule, the GI50 (SW-620) was 27.6 µM (inactive) and the GI50 (NCI-H226) was 61.5 µM (inactive).
